Results as given in article PMC3961306, “Comparison of the Cancer Gene Targeting and Biochemical Selectivities of All Targeted Kinase Inhibitors Approved for Clinical Use” (PLoS ONE, 2014).

Key:
Test in all cases: Kinase profiling in a biochemical assay panel (mobility shift assays and ELISA), %-inhibition at 1 μM; selectivity entropy
[1] = target: panel of more than 300 wild-type and mutant kinases (313 kinase panel) (Homo sapiens, UniProt P07949, M918T)
[2] = target: panel of more than 300 wild-type and mutant kinases (313 kinase panel) (Homo sapiens, UniProt P08581, Y1235D); conditions: kinase MET(Y1235D); compound at 1 μM
panel of more than 300 wild-type and mutant kinases (313 kinase panel) (Homo sapiens, UniProt P08581, Y1235D), sequence (P08581 25-1390 Y1235D): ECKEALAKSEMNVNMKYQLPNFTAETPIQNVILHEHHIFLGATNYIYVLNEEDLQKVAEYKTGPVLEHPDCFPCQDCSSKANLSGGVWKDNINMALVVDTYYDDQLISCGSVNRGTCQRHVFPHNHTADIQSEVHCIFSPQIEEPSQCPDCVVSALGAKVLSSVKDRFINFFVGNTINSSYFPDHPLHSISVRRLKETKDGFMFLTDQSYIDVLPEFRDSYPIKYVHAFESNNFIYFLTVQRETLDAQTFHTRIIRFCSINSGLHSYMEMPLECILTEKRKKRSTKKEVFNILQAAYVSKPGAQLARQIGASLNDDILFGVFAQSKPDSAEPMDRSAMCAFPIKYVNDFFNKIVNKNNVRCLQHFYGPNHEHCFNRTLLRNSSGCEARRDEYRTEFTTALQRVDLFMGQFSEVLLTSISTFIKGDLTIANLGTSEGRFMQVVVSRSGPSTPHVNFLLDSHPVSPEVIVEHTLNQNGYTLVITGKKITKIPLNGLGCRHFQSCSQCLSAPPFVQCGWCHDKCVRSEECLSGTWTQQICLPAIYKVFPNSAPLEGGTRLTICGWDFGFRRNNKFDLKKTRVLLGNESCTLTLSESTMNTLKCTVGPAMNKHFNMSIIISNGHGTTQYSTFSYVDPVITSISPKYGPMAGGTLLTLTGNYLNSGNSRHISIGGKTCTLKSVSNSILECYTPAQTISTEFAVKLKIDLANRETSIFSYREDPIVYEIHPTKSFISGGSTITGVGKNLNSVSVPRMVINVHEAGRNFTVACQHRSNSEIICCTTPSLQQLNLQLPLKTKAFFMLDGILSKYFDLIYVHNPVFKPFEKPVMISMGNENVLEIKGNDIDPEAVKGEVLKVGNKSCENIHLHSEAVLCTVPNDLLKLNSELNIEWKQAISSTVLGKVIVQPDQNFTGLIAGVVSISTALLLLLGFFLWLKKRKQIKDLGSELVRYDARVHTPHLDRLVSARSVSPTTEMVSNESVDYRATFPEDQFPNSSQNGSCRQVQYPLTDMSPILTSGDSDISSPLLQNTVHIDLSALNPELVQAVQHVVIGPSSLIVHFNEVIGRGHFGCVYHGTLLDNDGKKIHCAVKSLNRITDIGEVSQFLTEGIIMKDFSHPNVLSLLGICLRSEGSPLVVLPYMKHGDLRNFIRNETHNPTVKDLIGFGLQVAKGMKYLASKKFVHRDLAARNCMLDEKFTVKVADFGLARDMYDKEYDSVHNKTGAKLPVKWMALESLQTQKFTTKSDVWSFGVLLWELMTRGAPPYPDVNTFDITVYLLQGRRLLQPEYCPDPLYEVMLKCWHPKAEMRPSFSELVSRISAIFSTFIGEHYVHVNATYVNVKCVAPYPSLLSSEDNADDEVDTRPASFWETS

[3] = target: panel of more than 300 wild-type and mutant kinases (313 kinase panel) (Homo sapiens, UniProt P10721, V560G); conditions: kinase KIT(V560G); compound at 1 μM
panel of more than 300 wild-type and mutant kinases (313 kinase panel) (Homo sapiens, UniProt P10721, V560G), sequence (P10721 26-976 V560G): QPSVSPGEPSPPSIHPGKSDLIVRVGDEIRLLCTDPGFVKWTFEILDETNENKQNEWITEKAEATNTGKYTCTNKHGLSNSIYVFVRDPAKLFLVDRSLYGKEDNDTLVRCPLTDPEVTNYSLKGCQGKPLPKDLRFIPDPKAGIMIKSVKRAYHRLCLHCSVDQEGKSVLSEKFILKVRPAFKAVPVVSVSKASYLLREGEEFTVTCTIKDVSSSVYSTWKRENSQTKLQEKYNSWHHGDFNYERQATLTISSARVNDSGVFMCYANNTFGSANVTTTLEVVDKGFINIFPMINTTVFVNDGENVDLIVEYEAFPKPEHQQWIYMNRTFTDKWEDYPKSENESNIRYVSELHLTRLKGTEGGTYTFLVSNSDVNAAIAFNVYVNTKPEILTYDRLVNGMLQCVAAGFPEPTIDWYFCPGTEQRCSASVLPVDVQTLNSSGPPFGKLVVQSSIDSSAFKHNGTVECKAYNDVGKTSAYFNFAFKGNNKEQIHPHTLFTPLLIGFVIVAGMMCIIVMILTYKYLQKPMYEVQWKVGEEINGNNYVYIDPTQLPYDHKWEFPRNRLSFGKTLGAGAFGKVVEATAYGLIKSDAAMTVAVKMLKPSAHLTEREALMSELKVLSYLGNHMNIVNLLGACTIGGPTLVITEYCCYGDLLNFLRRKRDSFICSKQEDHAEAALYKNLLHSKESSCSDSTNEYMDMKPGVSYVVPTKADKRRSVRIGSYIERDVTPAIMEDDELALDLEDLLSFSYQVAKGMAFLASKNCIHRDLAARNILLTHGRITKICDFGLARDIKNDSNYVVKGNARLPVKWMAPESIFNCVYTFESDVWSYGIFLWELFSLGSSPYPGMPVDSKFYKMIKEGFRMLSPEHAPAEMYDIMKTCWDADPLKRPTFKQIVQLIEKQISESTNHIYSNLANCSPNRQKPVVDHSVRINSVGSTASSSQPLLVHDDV

[4] = target: T1, panel of more than 300 wild-type and mutant kinases (313 kinase panel) (Homo sapiens, UniProt P21709); conditions: kinase EPHA1; compound at 1 μM
T1 sequence (P21709 26-976): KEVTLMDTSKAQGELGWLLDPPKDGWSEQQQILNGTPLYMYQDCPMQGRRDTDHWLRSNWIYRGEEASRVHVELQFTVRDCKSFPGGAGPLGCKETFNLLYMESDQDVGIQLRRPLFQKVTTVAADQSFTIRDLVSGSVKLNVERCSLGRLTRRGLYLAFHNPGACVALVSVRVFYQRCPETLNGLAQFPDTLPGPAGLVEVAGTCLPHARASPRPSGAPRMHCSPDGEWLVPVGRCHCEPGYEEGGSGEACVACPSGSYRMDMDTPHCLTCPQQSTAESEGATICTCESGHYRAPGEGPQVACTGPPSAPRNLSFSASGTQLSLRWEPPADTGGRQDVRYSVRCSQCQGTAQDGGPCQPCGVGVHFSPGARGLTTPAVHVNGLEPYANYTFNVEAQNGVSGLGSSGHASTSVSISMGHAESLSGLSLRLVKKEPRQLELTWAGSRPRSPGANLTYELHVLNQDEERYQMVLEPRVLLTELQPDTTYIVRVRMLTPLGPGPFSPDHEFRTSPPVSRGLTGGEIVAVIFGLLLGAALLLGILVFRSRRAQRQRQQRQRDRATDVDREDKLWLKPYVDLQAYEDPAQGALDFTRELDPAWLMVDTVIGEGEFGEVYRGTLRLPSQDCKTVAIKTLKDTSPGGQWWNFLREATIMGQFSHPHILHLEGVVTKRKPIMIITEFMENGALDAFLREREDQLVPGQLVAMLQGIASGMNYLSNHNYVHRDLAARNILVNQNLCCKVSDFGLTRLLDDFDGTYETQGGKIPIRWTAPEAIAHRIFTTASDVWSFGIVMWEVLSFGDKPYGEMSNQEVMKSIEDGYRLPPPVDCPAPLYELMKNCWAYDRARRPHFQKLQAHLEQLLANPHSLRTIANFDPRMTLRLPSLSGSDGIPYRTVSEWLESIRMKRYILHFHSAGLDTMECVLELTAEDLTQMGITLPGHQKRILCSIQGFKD

[5] = target: panel of more than 300 wild-type and mutant kinases (313 kinase panel) (Homo sapiens, UniProt P22455, V550E); conditions: kinase FGFR4(V550E); compound at 1 μM
panel of more than 300 wild-type and mutant kinases (313 kinase panel) (Homo sapiens, UniProt P22455, V550E), sequence (P22455 22-802 V550E): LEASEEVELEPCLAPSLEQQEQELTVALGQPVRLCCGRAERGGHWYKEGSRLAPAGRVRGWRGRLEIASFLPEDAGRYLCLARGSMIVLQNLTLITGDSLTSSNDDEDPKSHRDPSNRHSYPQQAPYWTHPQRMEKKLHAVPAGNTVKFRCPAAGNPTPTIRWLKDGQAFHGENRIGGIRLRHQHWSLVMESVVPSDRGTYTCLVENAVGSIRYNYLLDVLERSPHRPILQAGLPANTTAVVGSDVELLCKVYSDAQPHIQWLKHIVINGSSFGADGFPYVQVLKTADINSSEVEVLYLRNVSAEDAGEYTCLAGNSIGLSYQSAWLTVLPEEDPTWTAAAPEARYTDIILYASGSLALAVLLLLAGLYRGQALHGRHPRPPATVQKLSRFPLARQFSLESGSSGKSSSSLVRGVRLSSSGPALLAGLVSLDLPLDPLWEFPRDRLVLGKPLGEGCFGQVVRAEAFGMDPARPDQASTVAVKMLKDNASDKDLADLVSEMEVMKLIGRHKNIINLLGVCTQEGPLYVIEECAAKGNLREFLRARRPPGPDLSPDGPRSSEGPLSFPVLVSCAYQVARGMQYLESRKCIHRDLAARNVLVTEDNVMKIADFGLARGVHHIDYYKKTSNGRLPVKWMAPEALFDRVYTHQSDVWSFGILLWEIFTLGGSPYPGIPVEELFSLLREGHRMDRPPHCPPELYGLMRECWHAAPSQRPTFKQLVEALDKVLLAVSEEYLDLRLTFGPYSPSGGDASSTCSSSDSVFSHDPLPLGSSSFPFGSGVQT

[6] = target: panel of more than 300 wild-type and mutant kinases (313 kinase panel) (Homo sapiens, UniProt P22455, V550L); conditions: kinase FGFR4(V550L); compound at 1 μM
panel of more than 300 wild-type and mutant kinases (313 kinase panel) (Homo sapiens, UniProt P22455, V550L), sequence (P22455 22-802 V550L): as the sequence (P22455 22-802 V550E) above, with E529L counted along it

[7] = target: T2, panel of more than 300 wild-type and mutant kinases (313 kinase panel) (Homo sapiens, UniProt Q06418); conditions: kinase TYRO3; compound at 1 μM
T2 sequence (Q06418 41-890): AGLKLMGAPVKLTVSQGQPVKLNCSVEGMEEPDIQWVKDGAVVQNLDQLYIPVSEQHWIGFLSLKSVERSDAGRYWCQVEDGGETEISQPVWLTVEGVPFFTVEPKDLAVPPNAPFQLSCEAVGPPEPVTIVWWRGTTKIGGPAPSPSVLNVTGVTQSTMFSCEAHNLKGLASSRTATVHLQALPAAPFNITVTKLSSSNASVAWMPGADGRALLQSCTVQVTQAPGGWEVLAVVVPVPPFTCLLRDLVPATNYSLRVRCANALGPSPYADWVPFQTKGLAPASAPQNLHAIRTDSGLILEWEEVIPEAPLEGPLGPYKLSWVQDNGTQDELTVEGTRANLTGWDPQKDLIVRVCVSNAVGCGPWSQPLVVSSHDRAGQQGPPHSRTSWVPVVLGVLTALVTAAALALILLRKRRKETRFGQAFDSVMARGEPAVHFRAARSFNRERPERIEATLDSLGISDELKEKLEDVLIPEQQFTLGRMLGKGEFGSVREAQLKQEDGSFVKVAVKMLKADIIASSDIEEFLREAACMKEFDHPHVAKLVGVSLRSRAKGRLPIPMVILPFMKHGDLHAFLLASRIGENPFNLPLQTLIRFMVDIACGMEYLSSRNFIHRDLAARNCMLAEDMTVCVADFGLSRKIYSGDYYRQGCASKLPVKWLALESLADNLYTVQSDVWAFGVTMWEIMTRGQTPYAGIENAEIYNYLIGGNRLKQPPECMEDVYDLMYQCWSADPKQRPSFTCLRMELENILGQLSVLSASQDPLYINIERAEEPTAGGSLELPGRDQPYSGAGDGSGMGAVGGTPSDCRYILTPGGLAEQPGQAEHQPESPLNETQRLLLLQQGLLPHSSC

[8] = target: panel of more than 300 wild-type and mutant kinases (313 kinase panel) (Homo sapiens, UniProt Q8N568); conditions: kinase DCAMKL2; compound at 1 μM
[9] = target: panel of more than 300 wild-type and mutant kinases (313 kinase panel) (Homo sapiens, UniProt Q9HBH9); conditions: kinase MNK2; 1 μM
[10] = target: panel of more than 300 wild-type and mutant kinases (313 kinase panel) (Homo sapiens, UniProt Q9UPE1); conditions: kinase MSSK1; 1 μM

panel of more than 300 wild-type and mutant kinases (313 kinase panel) (Homo sapiens, UniProt P07949, M918T), sequence (P07949 29-1114 M918T): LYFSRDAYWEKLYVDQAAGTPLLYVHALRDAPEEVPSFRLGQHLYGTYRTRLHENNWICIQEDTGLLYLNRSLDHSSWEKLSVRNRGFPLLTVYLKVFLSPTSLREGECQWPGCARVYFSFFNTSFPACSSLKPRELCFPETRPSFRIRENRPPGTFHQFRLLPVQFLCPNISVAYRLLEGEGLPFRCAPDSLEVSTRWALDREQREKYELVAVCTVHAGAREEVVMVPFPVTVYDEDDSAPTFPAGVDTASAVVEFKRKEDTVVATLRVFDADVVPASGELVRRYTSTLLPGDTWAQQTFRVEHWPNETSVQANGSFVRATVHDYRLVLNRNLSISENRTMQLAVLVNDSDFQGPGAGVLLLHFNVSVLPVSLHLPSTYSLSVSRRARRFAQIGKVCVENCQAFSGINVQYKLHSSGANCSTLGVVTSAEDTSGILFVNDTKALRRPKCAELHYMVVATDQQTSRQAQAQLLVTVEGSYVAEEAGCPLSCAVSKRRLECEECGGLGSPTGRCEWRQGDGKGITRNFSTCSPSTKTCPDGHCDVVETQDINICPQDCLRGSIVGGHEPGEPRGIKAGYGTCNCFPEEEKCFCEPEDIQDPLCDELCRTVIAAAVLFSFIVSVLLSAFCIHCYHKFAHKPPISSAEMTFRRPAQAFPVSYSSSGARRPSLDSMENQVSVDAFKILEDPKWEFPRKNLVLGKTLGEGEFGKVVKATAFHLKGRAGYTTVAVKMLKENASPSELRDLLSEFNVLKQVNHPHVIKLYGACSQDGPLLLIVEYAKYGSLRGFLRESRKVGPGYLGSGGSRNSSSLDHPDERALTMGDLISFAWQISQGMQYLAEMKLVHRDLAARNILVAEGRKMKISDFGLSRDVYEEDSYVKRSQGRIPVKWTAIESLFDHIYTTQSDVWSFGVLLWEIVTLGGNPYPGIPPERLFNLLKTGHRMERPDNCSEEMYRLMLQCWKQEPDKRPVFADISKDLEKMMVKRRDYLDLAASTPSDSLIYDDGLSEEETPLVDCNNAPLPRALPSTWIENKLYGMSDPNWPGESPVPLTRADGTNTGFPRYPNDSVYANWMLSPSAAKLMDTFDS

Compound | %-inhibition of RET(M918T) ([1]; 1 µM) [%] | %-inhibition of MET(Y1235D) [2] [%] | %-inhibition of KIT(V560G) [3] [%] | %-inhibition of EPHA1 [4] [%] | %-inhibition of FGFR4(V550E) [5] [%] | %-inhibition of FGFR4(V550L) [6] [%] | %-inhibition of TYRO3 [7] [%] | %-inhibition of DCAMKL2 [8] [%] | %-inhibition of MNK2 [9] [%] | %-inhibition of MSSK1 [10] [%] | %-inhibition of RET(M918T) ([1]; kinase RET(M918T), 1 μM) [%]
CNC(=O)c1cc(Oc2ccc(NC(=O)Nc3ccc(Cl)c(C(F)(F)F)c3)c(F)c2)ccn1 [regorafenib] | 102 | -1.72 | 99 | 55 | -0.119 | 3.37 | 34 | -6 | 73 | 43 | 
CO[C@H]1C[C@@H]2CC[C@@H](C)[C@@](O)(O2)C(=O)C(=O)N2CCCC[C@H]2C(=O)O[C@H]([C@H](C)C[C@@H]2CC[C@@H](OCCO)[C@H](OC)C2)CC(=O)[C@H](C)/C=C(\C)[C@@H](O)[C@@H](OC)C(=O)[C@H](C)C[C@H](C)/C=C/C=C/C=C/1C [everolimus] |  | -5 | -6 | -10 | -4.41 | -10 | -2.32 | -5.64 | 1.88 | -7 | -4.61
CCCS(=O)(=O)Nc1ccc(F)c(C(=O)c2c[nH]c3ncc(-c4ccc(Cl)cc4)cc23)c1F [vemurafenib] |  | 2.5 | 32 | -9 | 1.79 | 0.45 | 3.16 | -3.52 | 27 | -6.65 | 11
CC(=O)Nc1cccc(-n2c(=O)n(C3CC3)c(=O)c3c(Nc4ccc(I)cc4F)n(C)c(=O)c(C)c32)c1 [trametinib] |  | -1.5 | 1 | -1.61 | -3.28 | -0.155 | -2.65 | -2.4 | -11 | -5 | -1.41
